Holding throughout (format): in vivo
The nature of data set [1]: Mice studies dosing with the compound of formula (A): plasma and brain analyses. The conditions noted are these: mice dosed with the compound of formula (A). The text has this: (§1) The compound of formula (A) was initially isolated from human plasma samples from clinical trials dosing with the compound of formula (S). Additionally, the compound of formula (A) is a pro-drug of the compound of formula (S).

The subject of a further data set is CF-1 male albino mice. The experiment in a line: Maximal Electroshock Test (MES), anticonvulsant activity. As to the method:
Anticonvulsant activity was determined using the MES test, run according to the procedure described in detail below. Swinyard E A, Woodhead J H, White H S, Franklin M R. Experimental selection, quantification, and evaluation of anticonvulsants. In Levy R H, et al., eds. Antiepileptic Drugs. 3rd ed. New York: Raven Press, 1989:85-102.
CF-1 male albino mice (25-35 g) were fasted for 16 hours before testing. Mice were randomly selected into control and test groups, with the animals dosed with vehicle or test compound, at varying concentrations, respectively. […] Seizures were induced by trans-corneal electric shock using a 60-Hz alternating current, 50 mA, delivered for 0.2 sec. […] […] The test was complete when the entire course of the convulsion has been observed (typically, less than 1 minute after electrical stimulation), and the mice were then immediately euthanized by carbon dioxide inhalation.
Abolition of the full body tonic extensor component of the seizure was taken as the endpoint of the test. […] The ED50 value of the test compound (calculated when appropriate) was the calculated dose required to block the hind limb tonic-extensor component of the MES-induced seizure in 50% of the rodents tested. A probit analysis was used to calculate the ED50 and 95% fiducial limits (FL).
Results are listed as (number of mice with full body tonic extension prevented)/(total number of mice tested) (@ a given time).
(The maximal electroshock test induces tonic seizures with an electrical stimulus.)

A short description of data set [2]: Human plasma samples from clinical trials dosing with the compound of formula (S).
Text: and pharmaceutically acceptable salts thereof.
as §1

Data on 2 compounds can be found in patent US8815939B2, “Substituted sulfamide derivatives” (Janssen Pharmaceutica NV, priority 2008, dated 2014).

Consider `CC(=O)NS(=O)(=O)NC[C@H]1COc2cc(Cl)ccc2O1` [Compound (A), (2S)-(−)-N′-acetyl-N-(6-chloro-2,3-dihydro-benzo[1,4]dioxin-2-ylmethyl)-sulfamide], for which the “plasma and brain levels of compound (A) and compound (S) after dosing (pro-drug conversion)” value in data set [1] is given as “levels of the compound of formula (S) higher than those of the compound of formula (A)”. Moreover, the “MES Activity, (number of mice with full body tonic extension prevented)/(total number of mice tested)” value is 0/5 in the data set with CF-1 male albino mice (200 mg/kg po, 0.50 Hrs); 1/5 in the data set on CF-1 male albino mice (200 mg/kg po, 1.0 Hrs); 4/5 in the data set with CF-1 male albino mice (200 mg/kg po, 2 Hrs); 5/5 in the data set with CF-1 male albino mice (200 mg/kg po, 3 Hrs); 2/5 with CF-1 male albino mice (200 mg/kg po, 6 Hrs).
Turning to `NS(=O)(=O)NC[C@H]1COc2cc(Cl)ccc2O1` [Compound (S), (2S)-(−)-N-(6-chloro-2,3-dihydro-benzo[1,4]dioxin-2-ylmethyl)-sulfamide, reference compound], the “metabolite found in human plasma” value in data set [2] is given as “The compound of formula (A) is a human metabolite of the compound of formula (S)”. Further, in the data set on CF-1 male albino mice (150 mg/kg po, 3 Hrs), the “MES Activity, (number of mice with full body tonic extension prevented)/(total number of mice tested)” value was 5/5.
